Data on 2 compounds can be found in US20090171592A1, “Homology Models of Mammalian Zinc Transporters and Methods of Using Same” (Brookhaven Science Associates, LLC, priority 2007, published 2009).

Assay [1] has as its target T1, YiiP (Escherichia coli, UniProt P69380). The following applies: cited from earlier work.
In assay [2] the target is T1, YiiP. The settings on record: Kd1 145 μM vs Kd2 0.24 μM. An excerpt: Anomalous difference Fourier maps of native crystals were computed using experimental phases and diffraction data collected at the zinc edge.
The target in assay [3] is T1, YiiP. The settings on record: cited from earlier work. This is another data set of the same source.

Where two headings read alike, the source gives them in different places.

T1 sequence (P69380 whole entry): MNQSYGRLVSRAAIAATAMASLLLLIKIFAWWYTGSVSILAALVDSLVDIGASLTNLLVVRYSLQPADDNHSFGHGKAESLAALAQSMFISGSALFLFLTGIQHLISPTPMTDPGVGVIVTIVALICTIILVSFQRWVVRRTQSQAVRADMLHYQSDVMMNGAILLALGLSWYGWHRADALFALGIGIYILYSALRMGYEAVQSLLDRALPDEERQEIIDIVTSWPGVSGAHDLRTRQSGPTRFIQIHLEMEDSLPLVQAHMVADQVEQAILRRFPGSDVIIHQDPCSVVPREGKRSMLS

On to `[Cd+2]` [Cd^2+], for which the “binding affinities, metal binding mapped to D49 and D157 in the transmembrane domain” value in assay [1] is given as “submicromolar range”.
Regarding `[Zn+2]` [Zn^2+], the “affinity difference between site-Z1 and Z2” value in assay [2] is given as 604 fold. Also, the “Zn2+ stoichiometry units per YiiP protomer” value in assay [1] (EDTA pre-treated YiiP) was 2.6. Moreover, the “binding affinities, metal binding mapped to D49 and D157 in the transmembrane domain” value in assay [1] is on record as “submicromolar range”. Further, the Kd was 145 µM in assay [1] (read-out: dissociation constant (Kd, Kd1), low affinity component / site-Z2, low-affinity binding component, intracellular-facing site-Z2) and 0.24 µM in assay [1] (read-out: dissociation constant (Kd, Kd2), high affinity sites / site-Z1, two high affinity Zn2+-binding sites, overall Kd, attributed to site-Z1). In assay [3] (30-ms timescale), the “turnover rate of Zn2+ transport across the membrane” value is 34 s^−. Also, in assay [3] (read-out: Michaelis-Menten constant (Km) of Zn2+ transport by YiiP), the Km was 310 µM.
